{"source": "patent US20230284618A1", "about": "“HERBICIDAL COMBINATIONS” (UPL Corporation Limited, priority 2022, published 2023)", "format_in_all_cases": "in vivo", "key": {"Dandelion": {"test_system": "Dandelion", "assay": "Pre-emergence bio-efficacy, weed control 85 DAT", "settings": "85 days after treatment, G ai: imazamox 105, rimsulfuron 70, pendimethalin 4270, mesotrione 210", "protocol": "(§1) Experiments were carried out to evaluate the bio-efficacy of the herbicidal combinations according to the present disclosure. The herbicides were applied at the pre-emergence stage. The results have been disclosed in Tables 1-5.\n(§2) Weeds: Common Velvetgrass, Broadleaf spp., Red Sorrel, Dandelion, Geranium spp."}, "Red Sorrel": {"test_system": "Red Sorrel", "assay": "Pre-emergence bio-efficacy, weed control 85 DAT", "settings": "85 days after treatment, G ai: imazamox 105, rimsulfuron 70, pendimethalin 4270, mesotrione 210", "protocol": "as §1, §2"}, "Geranium spp.": {"test_system": "Geranium spp.", "assay": "Pre-emergence bio-efficacy, weed control 85 DAT", "settings": "85 days after treatment, G ai: imazamox 105, rimsulfuron 70, pendimethalin 4270, mesotrione 210", "protocol": "as §1, §2"}, "Common Ragweed": {"test_system": "Common Ragweed", "assay": "Pre-emergence bio-efficacy, weed control 27 DAT", "settings": "27 days after treatment, G ai: imazamox 105, rimsulfuron 70, pendimethalin 4270, mesotrione 210", "protocol": "as §1\n(§3) Weeds: Giant Foxtail, Common Ragweed, Galinsoga, Yellow Nutsedge"}, "Galinsoga": {"test_system": "Galinsoga", "assay": "Pre-emergence bio-efficacy, weed control 27 DAT", "settings": "27 days after treatment, G ai: imazamox 105, rimsulfuron 70, pendimethalin 4270, mesotrione 210", "protocol": "as §1, §3"}, "Yellow Nutsedge": {"test_system": "Yellow Nutsedge", "assay": "Pre-emergence bio-efficacy, weed control 27 DAT", "settings": "27 days after treatment, G ai: imazamox 105, rimsulfuron 70, pendimethalin 4270, mesotrione 210", "protocol": "as §1, §3"}, "Giant Foxtail": {"test_system": "Giant Foxtail", "assay": "Pre-emergence bio-efficacy, weed control 27 DAT", "settings": "27 days after treatment, G ai: imazamox 105, rimsulfuron 70, pendimethalin 4270, mesotrione 210", "protocol": "as §1, §3"}}}
{"compound": "COCc1cnc(C2=NC(C)(C(C)C)C(=O)N2)c(C(=O)O)c1", "note": "(stereo not shown) [Imazamox]", "values": [{"measurement": "Control 85 DAT (%) Dandelion", "setting": "Dandelion", "value": 5, "unit": "%"}, {"measurement": "Control 85 DAT (%) Red Sorrel", "setting": "Red Sorrel", "value": 13, "unit": "%"}, {"measurement": "Control 85 DAT (%) Geranium spp.", "setting": "Geranium spp.", "value": 8, "unit": "%"}, {"measurement": "Control 27 DAT (%) Common Ragweed", "setting": "Common Ragweed", "value": 63, "unit": "%"}, {"measurement": "Control 27 DAT (%) Galinsoga", "setting": "Galinsoga", "value": 53, "unit": "%"}, {"measurement": "Control 27 DAT (%) Yellow Nutsedge", "setting": "Yellow Nutsedge", "value": 40, "unit": "%"}, {"measurement": "Control 27 DAT (%) Giant Foxtail", "setting": "Giant Foxtail", "value": 58, "unit": "%"}]}
{"compound": "CS(=O)(=O)c1ccc(C(=O)C2C(=O)CCCC2=O)c([N+](=O)[O-])c1", "note": "[Mesotrione]", "values": [{"measurement": "Control 85 DAT (%) Dandelion", "setting": "Dandelion", "value": 8, "unit": "%"}, {"measurement": "Control 85 DAT (%) Red Sorrel", "setting": "Red Sorrel", "value": 8, "unit": "%"}, {"measurement": "Control 85 DAT (%) Geranium spp.", "setting": "Geranium spp.", "value": 5, "unit": "%"}]}
{"compound": "CCC(CC)Nc1c([N+](=O)[O-])cc(C)c(C)c1[N+](=O)[O-]", "note": "[Pendimethalin]", "values": [{"measurement": "Control 85 DAT (%) Dandelion", "setting": "Dandelion", "value": 20, "unit": "%"}, {"measurement": "Control 85 DAT (%) Red Sorrel", "setting": "Red Sorrel", "value": 15, "unit": "%"}, {"measurement": "Control 85 DAT (%) Geranium spp.", "setting": "Geranium spp.", "value": 18, "unit": "%"}]}
{"compound": "CCS(=O)(=O)c1cccnc1S(=O)(=O)NC(=O)Nc1nc(OC)cc(OC)n1", "note": "[Rimsulfuron]", "values": [{"measurement": "Control 85 DAT (%) Dandelion", "setting": "Dandelion", "value": 45, "unit": "%"}, {"measurement": "Control 85 DAT (%) Red Sorrel", "setting": "Red Sorrel", "value": 18, "unit": "%"}, {"measurement": "Control 85 DAT (%) Geranium spp.", "setting": "Geranium spp.", "value": 28, "unit": "%"}]}
